Mutagenic call data for four compounds are collected here from PubChem BioAssay AID1259407 (Chemical Carcinogenesis Research Information System (CCRIS), 2018).

The data set has as its system CCRIS mutagenicity, Ames/micronucleus/aberration tests. The data set can be described thus: CCRIS mutagenicity studies.
Setting [1] is: Test System: AMES SALMONELLA TYPHIMURIUM, Strain/Indicator: TA98, Metabolic Activation: NONE, Method: PREINCUBATION
[2] abbreviates: Test System: AMES SALMONELLA TYPHIMURIUM, Strain/Indicator: TA100, Metabolic Activation: NONE, Method: PREINCUBATION

Each structure is given as a SMILES string. Calls of active or inactive are those of the source. The rule behind the calls is not given here.

As for `CC(=O)NBr`, the mutagenic call runs as follows: (Test System: AMES SALMONELLA TYPHIMURIUM, Strain/Indicator: TA97, Metabolic Activation: HAMSTER, LIVER, S-9, AROCLOR 1254 (10%), Method: PREINCUBATION) “inactive; negative”; (Test System: AMES SALMONELLA TYPHIMURIUM, Strain/Indicator: TA97, Metabolic Activation: HAMSTER, LIVER, S-9, AROCLOR 1254 (30%), Method: PREINCUBATION) “inactive; negative”; (Test System: AMES SALMONELLA TYPHIMURIUM, Strain/Indicator: TA97, Metabolic Activation: NONE, Method: PREINCUBATION) “inactive; negative”; (Test System: AMES SALMONELLA TYPHIMURIUM, Strain/Indicator: TA97, Metabolic Activation: RAT, LIVER, S-9, AROCLOR 1254 (10%), Method: PREINCUBATION) “inactive; negative”; (Test System: AMES SALMONELLA TYPHIMURIUM, Strain/Indicator: TA97, Metabolic Activation: RAT, LIVER, S-9, AROCLOR 1254 (30%), Method: PREINCUBATION) “inactive; negative”; (Test System: AMES SALMONELLA TYPHIMURIUM, Strain/Indicator: TA98, Metabolic Activation: HAMSTER, LIVER, S-9, AROCLOR 1254 (10%), Method: PREINCUBATION) “inactive; negative”. Moreover, the mutagenic call by setting is: (Test System: AMES SALMONELLA TYPHIMURIUM, Strain/Indicator: TA98, Metabolic Activation: HAMSTER, LIVER, S-9, AROCLOR 1254 (30%), Method: PREINCUBATION) “inactive; negative”; under setting [1], “inactive; negative”; (Test System: AMES SALMONELLA TYPHIMURIUM, Strain/Indicator: TA98, Metabolic Activation: RAT, LIVER, S-9, AROCLOR 1254 (10%), Method: PREINCUBATION) “inactive; negative”; (Test System: AMES SALMONELLA TYPHIMURIUM, Strain/Indicator: TA98, Metabolic Activation: RAT, LIVER, S-9, AROCLOR 1254 (30%), Method: PREINCUBATION) “inactive; negative”; (Test System: AMES SALMONELLA TYPHIMURIUM, Strain/Indicator: TA100, Metabolic Activation: HAMSTER, LIVER, S-9, AROCLOR 1254 (10%), Method: PREINCUBATION) “inactive; negative”; (Test System: AMES SALMONELLA TYPHIMURIUM, Strain/Indicator: TA100, Metabolic Activation: HAMSTER, LIVER, S-9, AROCLOR 1254 (30%), Method: PREINCUBATION) “inactive; negative”. The mutagenic call was “inactive; negative” under setting [2]; “inactive; negative” (Test System: AMES SALMONELLA TYPHIMURIUM, Strain/Indicator: TA100, Metabolic Activation: RAT, LIVER, S-9, AROCLOR 1254 (10%), Method: PREINCUBATION); “inactive; negative” (Test System: AMES SALMONELLA TYPHIMURIUM, Strain/Indicator: TA100, Metabolic Activation: RAT, LIVER, S-9, AROCLOR 1254 (30%), Method: PREINCUBATION); “inactive; negative” (Test System: AMES SALMONELLA TYPHIMURIUM, Strain/Indicator: TA1535, Metabolic Activation: HAMSTER, LIVER, S-9, AROCLOR 1254 (10%), Method: PREINCUBATION); “inactive; negative” (Test System: AMES SALMONELLA TYPHIMURIUM, Strain/Indicator: TA1535, Metabolic Activation: HAMSTER, LIVER, S-9, AROCLOR 1254 (30%), Method: PREINCUBATION); “inactive; negative” (Test System: AMES SALMONELLA TYPHIMURIUM, Strain/Indicator: TA1535, Metabolic Activation: NONE, Method: PREINCUBATION). Besides, the mutagenic call is, setting by setting: (Test System: AMES SALMONELLA TYPHIMURIUM, Strain/Indicator: TA1535, Metabolic Activation: RAT, LIVER, S-9, AROCLOR 1254 (10%), Method: PREINCUBATION) “inactive; negative”; (Test System: AMES SALMONELLA TYPHIMURIUM, Strain/Indicator: TA1535, Metabolic Activation: RAT, LIVER, S-9, AROCLOR 1254 (30%), Method: PREINCUBATION) “inactive; negative”.
`O=c1ccc2c(cc3ccc4cccc5ccc2c3c45)c1=O`: the mutagenic call by setting is: (Test System: AMES SALMONELLA TYPHIMURIUM, Strain/Indicator: TA97A, Metabolic Activation: NONE, Method: PREINCUBATION) “active; positive”; under setting [1], “inactive; negative”; under setting [2], “inactive; negative”; (Test System: AMES SALMONELLA TYPHIMURIUM, Strain/Indicator: TA102, Metabolic Activation: NONE, Method: PREINCUBATION) “inactive; negative”; (Test System: AMES SALMONELLA TYPHIMURIUM, Strain/Indicator: TA104, Metabolic Activation: NONE, Method: PREINCUBATION) “inactive; negative”.
On to `Cc1cccc(C)c1[N+](=O)[O-]`, for which the mutagenic call under setting [1] was “inactive; negative”; the mutagenic call (Test System: AMES SALMONELLA TYPHIMURIUM, Strain/Indicator: TA98, Metabolic Activation: RAT, LIVER, S-9, KANECHLOR 500, Method: PREINCUBATION) is “inactive; negative”; the mutagenic call under setting [2] is “inactive; negative”; the mutagenic call (Test System: AMES SALMONELLA TYPHIMURIUM, Strain/Indicator: TA100, Metabolic Activation: RAT, LIVER, S-9, KANECHLOR 500, Method: PREINCUBATION) is “inactive; negative”.
On to `O=[N+]([O-])c1ccc2c3c(cccc13)CC2`, for which the mutagenic call was “active; positive” (Test System: AMES SALMONELLA TYPHIMURIUM, Strain/Indicator: TA98, Metabolic Activation: NONE, Method: STANDARD PLATE); “active; positive” (Test System: AMES SALMONELLA TYPHIMURIUM, Strain/Indicator: TA98, Metabolic Activation: RAT, LIVER, S-9, AROCLOR 1254, Method: STANDARD PLATE); “active; positive” (Test System: AMES SALMONELLA TYPHIMURIUM, Strain/Indicator: TA98, Metabolic Activation: RAT, LIVER, S-9, KC500 OR PHENOBARBITAL, Method: LIQUID SUSPENSION); “active; positive” (Test System: AMES SALMONELLA TYPHIMURIUM, Strain/Indicator: TA100, Metabolic Activation: NONE, Method: STANDARD PLATE); “active; positive” (Test System: AMES SALMONELLA TYPHIMURIUM, Strain/Indicator: TA100, Metabolic Activation: RAT, LIVER, S-9, AROCLOR 1254, Method: STANDARD PLATE); “active; positive” (Test System: AMES SALMONELLA TYPHIMURIUM, Strain/Indicator: TA100, Metabolic Activation: RAT, LIVER, S-9, KC500 OR PHENOBARBITAL, Method: LIQUID SUSPENSION). Also, the mutagenic call is “inactive; negative” (Test System: E. COLI, Strain/Indicator: WP2 UVRA, Metabolic Activation: NONE, Method: STANDARD PLATE) and “inactive; negative” (Test System: E. COLI, Strain/Indicator: WP2 UVRA, Metabolic Activation: RAT, LIVER, S-9, Method: STANDARD PLATE).
